ChEMBL document CHEMBL1697781, “Assessment of the health effects of chemicals in humans: II. Construction of an adverse effects database for QSAR modeling” (Curr Drug Discov Technol, 2004)

How the values were obtained:
Details in all cases: human; call rule not given here
Hepatotoxicity [1] = assay: FDA HLAED, alkaline phosphatase increase
Hepatotoxicity [2] = assay: FDA HLAED, serum glutamic pyruvic transaminase (SGPT) increase
Hepatotoxicity [3] = assay: FDA HLAED, lactate dehydrogenase (LDH) increase
Hepatotoxicity [4] = assay: FDA HLAED, serum glutamic oxaloacetic transaminase (SGOT) increase
Hepatotoxicity [5] = assay: FDA HLAED, gamma-glutamyl transferase (GGT) increase
Hepatotoxicity [6] = assay: FDA HLAED, liver enzyme composite activity
Throughout, for GGT Increase - Index Value: reference of the scale not given here.
Throughout, for LDH Increase - Index Value: reference of the scale not given here.

| Structure (SMILES) | Alkaline Phosphatase Increase - Activity Score (Hepatotoxicity [1]) | Alkaline Phosphatase Increase - Index Value (Hepatotoxicity [1]) | Alkaline Phosphatase Increase - Number of Reports (Hepatotoxicity [1]) | SGPT Increase - Activity Score (Hepatotoxicity [2]) | SGPT Increase - Index Value (Hepatotoxicity [2]) | SGPT Increase - Number of Reports (Hepatotoxicity [2]) | LDH Increase - Activity Score (Hepatotoxicity [3]) | LDH Increase - Index Value (Hepatotoxicity [3]) | LDH Increase - Number of Reports (Hepatotoxicity [3]) | SGOT Increase - Activity Score (Hepatotoxicity [4]) | SGOT Increase - Index Value (Hepatotoxicity [4]) | SGOT Increase - Number of Reports (Hepatotoxicity [4]) | GGT Increase - Activity Score (Hepatotoxicity [5]) | GGT Increase - Index Value (Hepatotoxicity [5]) | GGT Increase - Number of Reports (Hepatotoxicity [5]) | Composite Activity - Active (Hepatotoxicity [6]) | Composite Activity - Marginal (Hepatotoxicity [6]) | Composite Activity - Score (Hepatotoxicity [6]) |
| --- | --- | --- | --- | --- | --- | --- | --- | --- | --- | --- | --- | --- | --- | --- | --- | --- | --- | --- |
| N=C(N)NCC1COC2(CCCCC2)O1 (stereo not drawn) | Inactive | 0 | < 4 | Inactive | 0 | < 4 | Inactive | 0 | < 4 | Inactive | 0 | < 4 | Inactive | 0 | < 4 | 0 | 0 | Inactive |
| CCCCC(=O)N(Cc1ccc(-c2ccccc2-c2nnn[nH]2)cc1)[C@H](C(=O)O)C(C)C | Inactive | 0 | < 4 | Inactive | 7.6 | < 4 | Inactive | 0 | < 4 | Inactive | 5 | < 4 | Inactive | 2.5 | < 4 | 0 | 0 | Inactive |
| CCOC(=O)[C@H](CCc1ccccc1)N[C@@H](C)C(=O)N1[C@H](C(=O)O)C[C@@H]2CCC[C@@H]21 | Inactive | 1.1 | >= 4 | Inactive | 0.5 | < 4 | Inactive | 0.5 | < 4 | Inactive | 0.8 | < 4 | Inactive | 1.4 | >= 4 | 0 | 0 | Inactive |
| FC(F)OC(F)C(F)(F)F (stereo not drawn) | Inactive | 0.3 | < 4 | Inactive | 0.8 | < 4 | Inactive | 0.5 | < 4 | Inactive | 1.3 | >= 4 | Inactive | 0.5 | < 4 | 0 | 0 | Inactive |
| O=C(O)[C@@H](S)[C@@H](S)C(=O)O | Active | 175.4 | >= 4 | Active | 131.6 | < 4 | Inactive | 43.9 | < 4 | Active | 175.4 | >= 4 | Active | 87.7 | < 4 | 4 | 0 | Active |
| COc1ccc(-c2ccc3cc(C(=O)O)ccc3c2)cc1C12CC3CC(CC(C3)C1)C2 | Inactive | 0 | < 4 | Inactive | 0 | < 4 | Inactive | 0 | < 4 | Inactive | 0 | < 4 | Inactive | 0 | < 4 | 0 | 0 | Inactive |
